In the NIST ThermoML archive (doi:10.1021/je400783h):
± gives the expanded uncertainty stated by the source.

Columns and labels:
[1] = refractive index (Na D-line) (dimensionless); settings: 101.33 kPa, Liquid, Standard Abbe refractometry
[2] = relative permittivity at various frequencies (dimensionless); settings: 101 kPa, Liquid, Frequency=2 MHz, capacitive measurement method

OCC1CCCO1 (stereo unspecified) [2-tetrahydrofurylmethanol]
Settings	refractive index, [1]	relative permittivity, [2]
278.15 K	–	15.2 ± 0.1
280.65 K	–	15 ± 0.1
283.15 K	1.45646 ± 0.00037	15 ± 0.1
285.65 K	1.45549 ± 0.00037	14.9 ± 0.1
288.15 K	1.45452 ± 0.00037	14.8 ± 0.1
290.65 K	1.45356 ± 0.00037	14.7 ± 0.1
293.15 K	1.45259 ± 0.00037	14.6 ± 0.1
295.65 K	1.45162 ± 0.00037	14.5 ± 0.1
298.15 K	1.45063 ± 0.00037	14.4 ± 0.1
300.65 K	1.44965 ± 0.00037	14.4 ± 0.1
303.15 K	1.44867 ± 0.00037	14.3 ± 0.1
305.65 K	1.44769 ± 0.00037	14.2 ± 0.1
308.15 K	1.44671 ± 0.00037	14.1 ± 0.1
310.65 K	1.44572 ± 0.00037	14 ± 0.1
313.15 K	1.44473 ± 0.00037	13.9 ± 0.1
315.65 K	1.44375 ± 0.00037	13.8 ± 0.1
318.15 K	1.44274 ± 0.00037	13.8 ± 0.1
320.65 K	1.44176 ± 0.00037	13.6 ± 0.1
323.15 K	1.44072 ± 0.00037	13.5 ± 0.1
325.65 K	1.4397 ± 0.00037	13.5 ± 0.1
328.15 K	1.43871 ± 0.00037	13.4 ± 0.1
330.65 K	1.43772 ± 0.00037	13.3 ± 0.1
333.15 K	1.43668 ± 0.00037	13.2 ± 0.1
335.65 K	1.43567 ± 0.00037	13.1 ± 0.1
338.15 K	1.43466 ± 0.00037	13 ± 0.1

Cc1ccc(C=O)o1 [5-methylfurfural]
Settings	refractive index, [1]	relative permittivity, [2]
278.15 K	–	45.2 ± 0.2
280.65 K	–	44.5 ± 0.2
283.15 K	1.5364 ± 0.00037	43.7 ± 0.2
285.65 K	1.53529 ± 0.00037	43 ± 0.2
288.15 K	1.53393 ± 0.00037	42.3 ± 0.2
290.65 K	1.53269 ± 0.00037	41.6 ± 0.2
293.15 K	1.53144 ± 0.00037	40.9 ± 0.2
295.65 K	1.53019 ± 0.00037	40.2 ± 0.2
298.15 K	1.5289 ± 0.00037	39.4 ± 0.2
300.65 K	1.52765 ± 0.00037	38.7 ± 0.2
303.15 K	1.5264 ± 0.00037	38 ± 0.2
305.65 K	1.52513 ± 0.00037	37.2 ± 0.2
308.15 K	1.52385 ± 0.00037	36.4 ± 0.2
310.65 K	1.52257 ± 0.00037	35.8 ± 0.2
313.15 K	1.5213 ± 0.00037	35.1 ± 0.2
315.65 K	1.52 ± 0.00037	34.4 ± 0.2
318.15 K	1.51872 ± 0.00037	33.7 ± 0.2
320.65 K	1.51742 ± 0.00037	33.6 ± 0.2
323.15 K	1.51615 ± 0.00037	32.4 ± 0.2
325.65 K	1.51486 ± 0.00037	31.7 ± 0.2
328.15 K	1.51357 ± 0.00037	31.1 ± 0.2
330.65 K	1.51229 ± 0.00037	30.4 ± 0.2
333.15 K	1.511 ± 0.00037	29.8 ± 0.2
335.65 K	1.50972 ± 0.00037	29.1 ± 0.2
338.15 K	1.50842 ± 0.00037	28.4 ± 0.2
